Columns and labels:
Experiment in all cases: -log10 GI50 (growth inhibition 50%) (-log10(M)); higher = more potent growth inhibition
[1] = system: HCC38
Method in brief: (§1)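 Breast cancer cell lines were exposed to each compound for 72 hours at nine doses in 1:5 serial dilution, in triplicate, with a luminescence read-out against a time-zero plate. A Gompertz curve was fitted to the dose-response data by nonlinear least squares. The value is minus log10 of GI50, the molar concentration giving the set level of growth inhibition. Values equal to the top dose carry a < qualifier.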

[2] = system: MCF7
Method in brief: as §1

[3] = system: HCC70
Method in brief: as §1

[4] = system: MDAMB157
Method in brief: as §1

[5] = system: CAMA1
Method in brief: as §1

[6] = system: MDAMB175VII
Method in brief: as §1

[7] = system: 184A1
Method in brief: as §1

[8] = system: HS578T
Method in brief: as §1

[9] = system: HCC1937
Method in brief: as §1

[10] = system: T47D
Method in brief: as §1

[11] = system: MCF10F
Method in brief: as §1

[12] = system: HCC1954
Method in brief: as §1

[13] = system: SUM149PT
Method in brief: as §1

[14] = system: ZR75B
Method in brief: as §1

[15] = system: MCF10A
Method in brief: as §1

[16] = system: MX1
Method in brief: as §1

[17] = system: MDAMB134VI
Method in brief: as §1

[18] = system: HCC1187
Method in brief: as §1

[19] = system: MDAMB453
Method in brief: as §1

[20] = system: UACC812
Method in brief: as §1

Compound | -log10 GI50 [1] | -log10 GI50 [2] | -log10 GI50 [3] | -log10 GI50 [4] | -log10 GI50 [5] | -log10 GI50 [6] | -log10 GI50 [7] | -log10 GI50 [8] | -log10 GI50 [9] | -log10 GI50 [10] | -log10 GI50 [11] | -log10 GI50 [12] | -log10 GI50 [13] | -log10 GI50 [14] | -log10 GI50 [15] | -log10 GI50 [16] | -log10 GI50 [17] | -log10 GI50 [18] | -log10 GI50 [19] | -log10 GI50 [20]
CC(=O)NCC(=O)N1[C@@H]2CC[C@H]1c1ccc(Nc3ncc(C(F)(F)F)c(NC4CCC4)n3)cc12 | 6.2 | 5.71 | 5.38 | 6.1 | 5.44 | 5.63 | 5.66 | 6.05 | 5.2 | 5.14 | 6.28 | 5.16 | 6.08 | 5.94 | 6.36 | 7 | 5.3 | 7.1 | 5.62 | –
COc1cc2c(Nc3ccc(NC(=O)c4ccccc4)cc3)ncnc2cc1OCCCN1CCOCC1 | 6.21 | < 4.48 | 5.85 | 5.66 | 5.02 | 5.26 | < 4.3 | 5.88 | 5.23 | 4.94 | < 4 | < 4.48 | < 4 | – | < 4.48 | 6.35 | 5.03 | 6.39 | < 4.3 | 5.41
Cn1ncc(Cl)c1-c1cc(C(=O)N[C@H](CN)Cc2ccc(F)c(F)c2)oc1Cl | 5.99 | 6.91 | 8.68 | 5.22 | 7.02 | 6.56 | – | 5.58 | – | 7.35 | 5.45 | – | 7.42 | – | 5.03 | 8.11 | 5.2 | 8.02 | 7.2 | 7.18
Nc1[nH]nc2nnc(-c3c(-c4ccccc4)nn4ccccc34)cc12 | 4.24 | < 4.48 | 4.54 | < 4 | < 4 | 5.08 | 4.61 | < 4.48 | < 4 | < 4.48 | 4.09 | < 4.48 | 4.73 | 4.56 | < 4.48 | < 4.48 | < 4 | 4.7 | < 4 | 4.56
O=C(O)c1ccc(-c2c[nH]c3ncc(-c4ccccc4)cc23)cc1C1CCCC1 | < 4.48 | < 4.48 | < 4.18 | < 4.18 | < 4.18 | < 4.18 | 5.95 | – | < 4.48 | < 4.48 | 4.59 | < 4.48 | < 4.18 | < 4.18 | 5.55 | 4.45 | < 4.18 | – | < 4.18 | < 4.18
